Here are results for 38 molecules from ChEMBL document CHEMBL4483862, “Open-source discovery of chemical leads for next-generation chemoprotective antimalarials” (2018).

The subject of this assay is Plasmodium berghei. The experiment in a line: Luciferase/luciferin-expressing antifolate-resistant parasites were used to infect a culture of HepG2 cells that were pre-incubated with compounds. Infected hepatocytes emit light due to the luciferase reaction. Assay results are presented as the percent inhibition of light emission compared to control. […]. The class given is functional. To be noted: sporozoite; for IC90: read-out: LUCIFERASE INFECTION ASSAY - IC90.

Setting [1] is: read-out: LUCIFERASE INFECTION ASSAY - IC50.

As for `OC(c1ccc(F)c(Cl)c1)c1nnc(Nc2cccc(OC(F)(F)F)c2)s1` (stereo unspecified), the IC90 was > 10 µM. Further, the IC50 (PBLUC_HILL_SLOPE 2.34, PBLUC_R_SQUARED 0.225, read-out: LUCIFERASE INFECTION ASSAY - IC50) is 9.05 µM.

With `N#C/C(=N\Nc1cccc(Cl)c1Cl)C(N)=S`, the IC90 is > 12.1 µM. The 50% inhibitory concentration (IC50) (PBLUC_HILL_SLOPE 7.41, PBLUC_R_SQUARED 0.441, read-out: LUCIFERASE INFECTION ASSAY - IC50) was > 12.1 µM.

On to `O=C(Oc1ccc(Cl)cc1Sc1cc(Cl)ccc1OC(=O)c1cccs1)c1cccs1`, for which the IC90 is > 6.5 µM. The IC50 (FFLUC_HILL_SLOPE 35.2, FFLUC_R_SQUARED 0.259, read-out: LUCIFERASE INFECTION ASSAY - IC50) was > 6.5 µM.

Turning to `COc1ccc(C2CC(=O)c3cnn(-c4nc(C)cc(C)n4)c3C2)cc1` (stereo unspecified), the IC90 is 4.91 µM. Moreover, under “PBLUC_HILL_SLOPE 4.21, PBLUC_R_SQUARED 0.368, read-out: LUCIFERASE INFECTION ASSAY - IC50”, the IC50 stood at 2.91 µM.

On to `CCOc1ccc(/C=C(/C(=O)NCc2ccc(F)cc2)c2nc3ccccc3[nH]2)cc1`, for which the IC90 is 5.81 µM. In addition, the IC50 (PBLUC_HILL_SLOPE 89.9, PBLUC_R_SQUARED 0.419, read-out: LUCIFERASE INFECTION ASSAY - IC50) was found to be 5.67 µM.

With `O=c1c(Cl)c(Cl)cnn1-c1cc(Cl)cc(Cl)c1`, the IC90 worked out at 4.28 µM. Further, for the setting “FFLUC_HILL_SLOPE 2.56, FFLUC_R_SQUARED 0.592, HEPG2TOX_HILL_SLOPE 5.14, HEPG2TOX_R_SQUARED 0.846, PBLUC_HILL_SLOPE 13.3, PBLUC_R_SQUARED 0.218, read-out: LUCIFERASE INFECTION ASSAY - IC50”, the concentration for half-maximal inhibition (IC50) was determined as 3.63 µM.

Regarding `CN1c2ccsc2C(=O)/C(=C/Nc2cccc(Cl)c2)S1(=O)=O`, the IC90 was > 9.3 µM. For the same molecule, the half-inhibitory concentration (IC50) under setting [1] was > 9.3 µM.

Consider `COc1cc(NC(=O)N2Cc3cnc(Nc4cccc(N(C)C)c4)nc3C2)cc(OC)c1OC`, for which the IC90 is > 7.1 µM. The IC50 under setting [1] is > 7.1 µM.

On to `CC(=O)c1cc2c(N)c(-c3nc(C(C)(C)C)no3)sc2nc1C`, for which the IC90 amounted to 3.91 µM. For the same molecule, the IC50 (PBLUC_HILL_SLOPE 13.1, PBLUC_R_SQUARED 0.312, read-out: LUCIFERASE INFECTION ASSAY - IC50) was 3.31 µM.

For the molecule `CC1CC(C)CN(C(=O)CN2CCN(CC(=O)Nc3ccc(N4CCCCCC4)cc3)CC2)C1` (stereo unspecified), the 90% effect concentration (IC90) was > 10 µM. Also, the half-maximal inhibitory concentration (IC50) (PBLUC_HILL_SLOPE 1.09, PBLUC_R_SQUARED 0.619, read-out: LUCIFERASE INFECTION ASSAY - IC50) is 3.56 µM.

Turning to `CC(C)n1ncc2c(C(=O)Nc3ccn(C)n3)cc(-c3cccs3)nc21`, the IC90 was > 10 µM. The IC50 under setting [1] was > 10 µM.

For `Cn1c(-c2c(-c3ccccc3)n[nH]c2-c2ccccc2O)nc2ccccc21`, the IC90 was > 10 µM. Besides, the IC50 (FFLUC_HILL_SLOPE 1.64, FFLUC_R_SQUARED 0.277, read-out: LUCIFERASE INFECTION ASSAY - IC50) was > 10 µM.

For `Cn1nc(C(C)(C)C)cc1C(=O)Nc1ccc2nc(-c3cccnc3)nn2c1`, the IC90 was > 10 µM. In addition, where the note is “PBLUC_HILL_SLOPE 11.9, PBLUC_R_SQUARED 0.235, read-out: LUCIFERASE INFECTION ASSAY - IC50”, the concentration for half-maximal inhibition (IC50) is > 10 µM.

With `CCN(CC)CCn1c(NC(=O)c2cc3c(s2)CCCC3)nc2ccccc21`, the IC90 is > 10 µM. Besides, the IC50 (PBLUC_HILL_SLOPE 4.87, PBLUC_R_SQUARED 0.309, read-out: LUCIFERASE INFECTION ASSAY - IC50) came out at 6.91 µM.

With `O=C(CSc1nnc(-c2ccco2)n1-c1ccc(OCc2ccccc2)cc1)c1ccc(Cl)cc1`, the IC90 is > 6.57 µM. Also, the IC50 under setting [1] was > 6.57 µM.

As to `O=C(CCC1CCCC1)N1CCC(c2nnc3n2CCC3)CC1`, the IC90 is > 10 µM. Also, the IC50 (HEPG2TOX_HILL_SLOPE 0.129, HEPG2TOX_R_SQUARED 0.379, read-out: LUCIFERASE INFECTION ASSAY - IC50) is > 10 µM.

For `COc1ccc(S(=O)(=O)N2CCCCC2)cc1NC(=O)c1nn(CC(C)C)c(=O)c2ccccc12`, the 90% effect concentration (IC90) is 4.38 µM. For the same molecule, the IC50 (FFLUC_HILL_SLOPE 27.6, FFLUC_R_SQUARED 0.604, PBLUC_HILL_SLOPE 11.9, PBLUC_R_SQUARED 0.273, read-out: LUCIFERASE INFECTION ASSAY - IC50) turned out to be 3.64 µM.

Turning to `CCCCNC(=O)c1c(NC(=O)c2ccc(OC)cc2)nc2c(C)cccn12`, the IC90 was > 8.67 µM. Also, under setting [1], the IC50 was > 8.67 µM.

For the molecule `CC(C)Oc1ccc(Nc2cc3c(cn2)cc(-c2cccc(C(F)(F)F)c2)n3C)cc1`, the IC90 was 5.18 µM. Further, the IC50 (PBLUC_HILL_SLOPE 8.74, PBLUC_R_SQUARED 0.3, read-out: LUCIFERASE INFECTION ASSAY - IC50) turned out to be 4.03 µM.

Take `CCN(CC)S(=O)(=O)c1ccc(SC(C)C(=O)Nc2ccc(OC(F)(F)F)cc2)nc1` (stereo unspecified): the IC90 is > 10 µM. The IC50 (FFLUC_HILL_SLOPE 13.8, FFLUC_R_SQUARED 0.75, read-out: LUCIFERASE INFECTION ASSAY - IC50) was > 10 µM.

Turning to `CCN(CC)CCNC(=O)c1ccc(Nc2ccn3nc(-c4ccc(Cl)cc4)cc3n2)cc1`, the IC90 was > 7.13 µM. The IC50 under setting [1] is > 7.13 µM.

Regarding `N#C/C(=N\Nc1cccc(C(F)(F)F)c1)S(=O)(=O)c1ccsc1`, the IC90 is > 9.18 µM. The IC50 (HEPG2TOX_HILL_SLOPE 2.11, HEPG2TOX_R_SQUARED 0.943, PBLUC_HILL_SLOPE 4.11, PBLUC_R_SQUARED 0.604, read-out: LUCIFERASE INFECTION ASSAY - IC50) came to 6.42 µM.

As for `COc1ccc(Cl)cc1C(=O)NNC(=O)c1oc2ccccc2c1CSC1CCCCC1`, the concentration for an effect of 90% (IC90) was > 10 µM. In addition, the IC50 (FFLUC_HILL_SLOPE 11.7, FFLUC_R_SQUARED 0.493, read-out: LUCIFERASE INFECTION ASSAY - IC50) was > 10 µM.

In the case of `CCCCNS(=O)(=O)c1ccc2nc(SCc3cccc(OC)c3)[nH]c2c1`, the IC90 is > 10 µM. Also, under setting [1], the IC50 was > 10 µM.

For `O=C(NC1CCCc2ccccc21)c1cc(-c2cccs2)nn1-c1ccccc1` (stereo unspecified), the concentration for an effect of 90% (IC90) was > 10 µM. The IC50 (FFLUC_HILL_SLOPE 14.9, FFLUC_R_SQUARED 0.608, PBLUC_HILL_SLOPE 2.01, PBLUC_R_SQUARED 0.0278, read-out: LUCIFERASE INFECTION ASSAY - IC50) was 6.82 µM.

Regarding `Cc1ccc(Sc2ccc(/C=C/c3cc(C(=O)O)c4ccccc4n3)cc2[N+](=O)[O-])cc1`, the IC90 was > 10 µM. In addition, the IC50 (PBLUC_HILL_SLOPE 1.12, PBLUC_R_SQUARED 0.368, read-out: LUCIFERASE INFECTION ASSAY - IC50) came out at 8.94 µM.

On to `c1csc(SCc2ccc3nonc3c2)c1`, for which the IC90 is > 13.3 µM. For the same molecule, where the note is “PBLUC_HILL_SLOPE 1.33, PBLUC_R_SQUARED 0.35, read-out: LUCIFERASE INFECTION ASSAY - IC50”, the IC50 is > 13.3 µM.

For `CC(NC(=O)COC(=O)CSc1ccc(Br)c2cccc(Cl)c12)c1ccccc1` (stereo unspecified), the IC90 was > 10 µM. The IC50 (FFLUC_HILL_SLOPE 11.2, FFLUC_R_SQUARED 0.0748, PBLUC_HILL_SLOPE 1.42, PBLUC_R_SQUARED 0.0165, read-out: LUCIFERASE INFECTION ASSAY - IC50) is > 10 µM.

`COc1cc(/C=C/C(=O)c2ccc(C3CCCCC3)cc2)cc(Br)c1OCC(=O)N(C)C`: the IC90 worked out at 3.59 µM. For the same molecule, the half-inhibitory concentration (IC50) (HEPG2TOX_HILL_SLOPE 2.02, HEPG2TOX_R_SQUARED 0.972, PBLUC_HILL_SLOPE 3.75, PBLUC_R_SQUARED 0.69, read-out: LUCIFERASE INFECTION ASSAY - IC50) is 2 µM.

Regarding `CCCn1c(-c2ccc(OC)cc2)nc2c(c(=O)c3ccccc3n2C)c1=O`, the IC90 was 7.12 µM. Further, the IC50 (PBLUC_HILL_SLOPE 3.15, PBLUC_R_SQUARED 0.522, read-out: LUCIFERASE INFECTION ASSAY - IC50) worked out at 3.55 µM.

As to `C/C(=N\NC(=S)NCC(C)(C)C)c1cc(F)ccc1O`, the IC90 was > 11.1 µM. The IC50 under setting [1] is > 11.1 µM.

Consider `CCCOc1ccc(C=C(c2nc3ccccc3s2)c2nc3ccccc3s2)c(O)c1`, for which the IC90 is > 10 µM. For the setting “FFLUC_HILL_SLOPE 30.4, FFLUC_R_SQUARED 0.313, read-out: LUCIFERASE INFECTION ASSAY - IC50”, the half-maximal inhibitory concentration (IC50) was > 10 µM.

On to `Cc1ccc(OCC(=O)N(Cc2ccccc2)c2c(N)n(Cc3ccccc3)c(=O)[nH]c2=O)c(C)c1`, for which the 90% effect concentration (IC90) is > 10 µM. Also, for the setting “PBLUC_HILL_SLOPE 0.649, PBLUC_R_SQUARED 0.141, read-out: LUCIFERASE INFECTION ASSAY - IC50”, the IC50 was > 10 µM.

On to `CC(C)(C)c1ccc(NC(=O)N2CCCN(Cc3ccccc3)CC2)cc1`, for which the 90% effect concentration (IC90) is > 9.03 µM. The IC50 under setting [1] worked out at 8.75 µM.

Consider `c1ccc(C2(CNc3ncnc4ccccc34)CCC2)cc1`, for which the IC90 amounted to 5.71 µM. In addition, under “HEPG2TOX_HILL_SLOPE 1.34, HEPG2TOX_R_SQUARED 0.743, PBLUC_HILL_SLOPE 15.9, 1.42, PBLUC_R_SQUARED 0.162, 0.799, read-out: LUCIFERASE INFECTION ASSAY - IC50”, the IC50 was found to be 2.35 µM.

With `Cc1ccc(C2=NN(C(=O)Cn3nc(C)c(S(=O)(=O)N(C)C)c3C)C(c3ccco3)C2)cc1` (stereo unspecified), the IC90 was > 10 µM. For the same molecule, the concentration for half-maximal inhibition (IC50) (FFLUC_HILL_SLOPE 21, FFLUC_R_SQUARED 0.497, read-out: LUCIFERASE INFECTION ASSAY - IC50) was > 10 µM.

With `O=C(NC1CCCc2ccccc21)c1ccc2c(c1)S(=O)(=O)c1ccccc1C2=O` (stereo unspecified), the IC90 is > 10 µM. Also, the IC50 (HEPG2TOX_HILL_SLOPE 1, HEPG2TOX_R_SQUARED 0.0756, read-out: LUCIFERASE INFECTION ASSAY - IC50) was > 10 µM.

As to `COc1cccc(-c2[nH]nc3ccnc(-c4ccc(C(C)C)cc4)c23)c1`, the IC90 was > 10 µM. In addition, the IC50 (FFLUC_HILL_SLOPE 13.2, FFLUC_R_SQUARED 0.418, read-out: LUCIFERASE INFECTION ASSAY - IC50) is > 10 µM.
